This note sets out measurements from ChEMBL document CHEMBL4507288 (2021).

For assay [1], the target named is 5-hydroxytryptamine receptor 1B (Homo sapiens, UniProt P28222). Briefly: GPCRScan assay: inhibition of 5-HT1B. Also noted: radioligand conc. used [nm] 0.6 – 1.5, parental cells stable HEK.
For assay [2], the target named is Alpha-2C adrenergic receptor (Homo sapiens, UniProt P18825). Briefly: GPCRScan assay: inhibition of Alpha2C. Set-up: radioligand conc. used [nm] 0.5 – 1.0, parental cells stable MDCK.
Sequence of Alpha-2C adrenergic receptor (P18825 whole entry): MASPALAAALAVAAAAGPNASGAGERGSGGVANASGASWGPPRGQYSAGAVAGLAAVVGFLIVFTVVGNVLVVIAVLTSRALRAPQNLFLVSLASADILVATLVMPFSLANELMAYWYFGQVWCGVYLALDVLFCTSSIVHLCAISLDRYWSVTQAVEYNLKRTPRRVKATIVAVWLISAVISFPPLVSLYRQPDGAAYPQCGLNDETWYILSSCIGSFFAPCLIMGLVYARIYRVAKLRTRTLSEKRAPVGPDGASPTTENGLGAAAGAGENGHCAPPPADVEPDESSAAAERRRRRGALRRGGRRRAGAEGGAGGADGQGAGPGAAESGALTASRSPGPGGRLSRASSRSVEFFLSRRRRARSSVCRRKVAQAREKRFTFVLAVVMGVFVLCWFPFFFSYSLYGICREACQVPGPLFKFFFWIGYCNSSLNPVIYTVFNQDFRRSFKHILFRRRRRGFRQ
In assay [3] the target is Macrophage-stimulating protein receptor (Homo sapiens) (UniProt Q04912). The conditions noted are these: Compound concentration 1000.0 nM.
Assay [4] has as its system Phosphatidylinositol 4,5-bisphosphate 3-kinase catalytic subunit alpha isoform (Homo sapiens), P42336 [I800L]. The conditions noted are these: Compound concentration 1000.0 nM.
For assay [5], the target named is Serine/threonine-protein kinase VRK2 (Homo sapiens) (UniProt Q86Y07). The conditions noted are these: Compound concentration 1000.0 nM.
For assay [6], the target named is Mitogen-activated protein kinase 13 (Homo sapiens) (UniProt O15264). As to conditions: Compound concentration 1000.0 nM.
The target in assay [7] is Cyclin-dependent kinase 4 (Homo sapiens) (UniProt P11802). The conditions noted are these: Compound concentration 1000.0 nM.
The target of assay [8] is Cyclin-dependent kinase-like 1 (Homo sapiens) (UniProt Q00532). As to conditions: Compound concentration 1000.0 nM.
Assay [9] deals with Tyrosine-protein kinase ABL1 (Homo sapiens), P00519 [H396P]. As to conditions: Compound concentration 1000.0 nM.
For assay [10], the system named is Tyrosine-protein kinase ABL1 (Homo sapiens), P00519 [T315I]. As to conditions: Compound concentration 1000.0 nM.
For assay [11], the system named is Receptor-type tyrosine-protein kinase FLT3 (Homo sapiens), P36888 [UNDEFINED MUTATION]. As to conditions: Compound concentration 1000.0 nM.
Assay [12] has as its target Serine/threonine-protein kinase PknB (Mycobacterium tuberculosis) (UniProt P9WI81). The conditions noted are these: Compound concentration 1000.0 nM.
Assay [13] deals with Serine/threonine-protein kinase ULK3 (Homo sapiens) (UniProt Q6PHR2). As to conditions: Compound concentration 1000.0 nM.
The target in assay [14] is Cyclin-dependent kinase 11B (Homo sapiens) (UniProt P21127). As to conditions: Compound concentration 1000.0 nM.
For assay [15], the target named is Bone morphogenetic protein receptor type-2 (Homo sapiens) (UniProt Q13873). The conditions noted are these: Compound concentration 1000.0 nM.
In assay [16] the target is Phosphatidylinositol 3-kinase C2 domain-containing subunit gamma (Homo sapiens) (UniProt O75747). The conditions noted are these: Compound concentration 1000.0 nM.
Sequence of Phosphatidylinositol 3-kinase C2 domain-containing subunit gamma (Homo sapiens) (O75747 whole entry, the tested form may be a part): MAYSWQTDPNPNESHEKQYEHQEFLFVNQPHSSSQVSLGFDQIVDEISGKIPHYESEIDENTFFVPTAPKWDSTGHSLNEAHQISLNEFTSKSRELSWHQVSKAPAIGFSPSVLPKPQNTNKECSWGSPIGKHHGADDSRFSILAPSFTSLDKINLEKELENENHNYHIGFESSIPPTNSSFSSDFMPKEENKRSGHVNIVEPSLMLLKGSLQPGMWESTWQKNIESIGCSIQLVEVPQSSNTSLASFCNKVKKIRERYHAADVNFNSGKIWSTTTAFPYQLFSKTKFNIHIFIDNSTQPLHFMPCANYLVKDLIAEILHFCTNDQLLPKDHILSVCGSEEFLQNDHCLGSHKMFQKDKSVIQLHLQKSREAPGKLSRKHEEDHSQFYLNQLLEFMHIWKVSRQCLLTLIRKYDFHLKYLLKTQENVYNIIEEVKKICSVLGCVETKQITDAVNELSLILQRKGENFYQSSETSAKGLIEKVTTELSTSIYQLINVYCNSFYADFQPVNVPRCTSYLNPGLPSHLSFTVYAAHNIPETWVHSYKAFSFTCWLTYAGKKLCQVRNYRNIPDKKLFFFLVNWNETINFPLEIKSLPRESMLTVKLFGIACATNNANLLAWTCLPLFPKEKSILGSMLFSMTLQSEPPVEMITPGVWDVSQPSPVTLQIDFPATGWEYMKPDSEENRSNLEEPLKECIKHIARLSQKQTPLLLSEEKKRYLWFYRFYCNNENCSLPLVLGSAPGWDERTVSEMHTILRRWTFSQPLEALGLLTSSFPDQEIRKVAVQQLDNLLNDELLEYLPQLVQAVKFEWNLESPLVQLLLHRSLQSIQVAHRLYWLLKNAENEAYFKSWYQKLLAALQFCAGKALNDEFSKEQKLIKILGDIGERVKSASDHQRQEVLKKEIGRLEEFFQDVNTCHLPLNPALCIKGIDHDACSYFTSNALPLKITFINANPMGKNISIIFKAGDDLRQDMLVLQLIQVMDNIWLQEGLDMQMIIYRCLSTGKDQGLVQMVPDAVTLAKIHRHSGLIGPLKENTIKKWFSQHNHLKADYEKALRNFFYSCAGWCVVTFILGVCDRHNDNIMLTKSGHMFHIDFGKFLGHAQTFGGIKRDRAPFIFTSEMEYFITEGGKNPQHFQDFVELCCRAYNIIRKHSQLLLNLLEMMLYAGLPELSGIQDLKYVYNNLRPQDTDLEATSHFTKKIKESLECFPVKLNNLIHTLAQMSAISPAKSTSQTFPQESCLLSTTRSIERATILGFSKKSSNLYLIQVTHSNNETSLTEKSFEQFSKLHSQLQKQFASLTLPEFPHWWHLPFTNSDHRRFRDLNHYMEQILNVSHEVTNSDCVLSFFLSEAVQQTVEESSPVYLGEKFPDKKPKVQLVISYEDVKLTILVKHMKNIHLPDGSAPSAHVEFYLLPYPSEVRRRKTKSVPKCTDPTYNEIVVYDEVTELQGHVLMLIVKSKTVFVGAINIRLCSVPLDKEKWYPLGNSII
For assay [17], the target named is Serine/threonine-protein kinase PRP4 homolog (Homo sapiens) (UniProt Q13523). The conditions noted are these: Compound concentration 1000.0 nM.
Assay [18] has as its target Eukaryotic translation initiation factor 2-alpha kinase 1 (Homo sapiens) (UniProt Q9BQI3). As to conditions: Compound concentration 1000.0 nM.
Assay [19] concerns the target Myosin-IIIb (Homo sapiens) (UniProt Q8WXR4). As to conditions: Compound concentration 1000.0 nM.
In assay [20] the target is Serine/threonine-protein kinase Nek6 (Homo sapiens) (UniProt Q9HC98). The conditions noted are these: Compound concentration 1000.0 nM.
Assay [21] has as its target Ribosomal protein S6 kinase alpha-5 (Homo sapiens) (UniProt O75582). The conditions noted are these: Compound concentration 1000.0 nM.
The target in assay [22] is Ephrin type-B receptor 2 (Homo sapiens) (UniProt P29323). As to conditions: Compound concentration 1000.0 nM.
Assay [23] addresses Serine/threonine-protein kinase Nek2 (Homo sapiens) (UniProt P51955). The conditions noted are these: Compound concentration 1000.0 nM.
For assay [24], the target named is Cyclin-dependent kinase 17 (Homo sapiens) (UniProt Q00537). The conditions noted are these: Compound concentration 1000.0 nM.
Assay [25] deals with LIM domain kinase 2 (Homo sapiens) (UniProt P53671). The conditions noted are these: Compound concentration 1000.0 nM.
Assay [26] addresses Dual specificity tyrosine-phosphorylation-regulated kinase 2 (Homo sapiens) (UniProt Q92630). As to conditions: Compound concentration 1000.0 nM.
For assay [27], the target named is Glycogen synthase kinase-3 beta (Homo sapiens) (UniProt P49841). As to conditions: Compound concentration 1000.0 nM.
Assay [28] concerns Epidermal growth factor receptor (Homo sapiens), P00533 [UNDEFINED MUTATION]. The conditions noted are these: Compound concentration 1000.0 nM.
In assay [29] the target is Interferon-induced, double-stranded RNA-activated protein kinase (Homo sapiens) (UniProt P19525). The conditions noted are these: Compound concentration 1000.0 nM.
Sequence of Interferon-induced, double-stranded RNA-activated protein kinase (Homo sapiens) (P19525 whole entry): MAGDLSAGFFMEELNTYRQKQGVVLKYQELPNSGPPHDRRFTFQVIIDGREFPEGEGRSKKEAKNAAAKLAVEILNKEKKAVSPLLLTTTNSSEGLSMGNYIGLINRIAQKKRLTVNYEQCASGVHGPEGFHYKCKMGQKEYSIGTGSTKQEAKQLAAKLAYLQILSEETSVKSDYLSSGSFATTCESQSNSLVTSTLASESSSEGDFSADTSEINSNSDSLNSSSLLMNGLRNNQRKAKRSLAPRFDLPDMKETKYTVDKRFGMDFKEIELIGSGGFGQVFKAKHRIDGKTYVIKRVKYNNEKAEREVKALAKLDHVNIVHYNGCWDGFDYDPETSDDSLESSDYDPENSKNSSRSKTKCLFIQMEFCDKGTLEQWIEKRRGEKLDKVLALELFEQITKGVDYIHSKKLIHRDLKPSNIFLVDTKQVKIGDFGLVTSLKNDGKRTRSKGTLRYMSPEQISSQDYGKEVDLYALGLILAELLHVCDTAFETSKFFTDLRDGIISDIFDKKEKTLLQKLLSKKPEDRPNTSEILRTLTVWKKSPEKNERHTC
In assay [30] the target is Fibroblast growth factor receptor 2 (Homo sapiens) (UniProt P21802). The conditions noted are these: Compound concentration 1000.0 nM.
Assay [31] has as its target Serine/threonine-protein kinase WNK2 (Homo sapiens) (UniProt Q9Y3S1). As to conditions: Compound concentration 1000.0 nM.
Assay [32] addresses Serine/threonine-protein kinase ULK2 (Homo sapiens) (UniProt Q8IYT8). As to conditions: Compound concentration 1000.0 nM.
Assay [33] has as its target Serine/threonine-protein kinase WNK4 (Homo sapiens) (UniProt Q96J92). The conditions noted are these: Compound concentration 1000.0 nM.
In assay [34] the target is Mitogen-activated protein kinase kinase kinase kinase 2 (Homo sapiens) (UniProt Q12851). The conditions noted are these: Compound concentration 1000.0 nM.
Assay [35] concerns the target Serine/threonine-protein kinase WNK1 (Homo sapiens) (UniProt Q9H4A3). As to conditions: Compound concentration 1000.0 nM.
Assay [36] has as its target Calcium/calmodulin-dependent protein kinase kinase 2 (Homo sapiens) (UniProt Q96RR4). The conditions noted are these: Compound concentration 1000.0 nM.
Assay [37] concerns the target Proto-oncogene tyrosine-protein kinase receptor Ret (Homo sapiens) (UniProt P07949). The conditions noted are these: Compound concentration 1000.0 nM.
In assay [38] the target is Serine/threonine-protein kinase pim-1 (Homo sapiens) (UniProt P11309). As to conditions: Compound concentration 1000.0 nM.
Assay [39] concerns the target Tyrosine-protein kinase Fgr (Homo sapiens) (UniProt P09769). The conditions noted are these: Compound concentration 1000.0 nM.
Assay [40] addresses Dual specificity mitogen-activated protein kinase kinase 3 (Homo sapiens) (UniProt P46734). The conditions noted are these: Compound concentration 1000.0 nM.
In assay [41] the target is Rho-associated protein kinase 2 (Homo sapiens) (UniProt O75116). The conditions noted are these: Compound concentration 1000.0 nM.
Assay [42] has as its target RAC-gamma serine/threonine-protein kinase (Homo sapiens) (UniProt Q9Y243). As to conditions: Compound concentration 1000.0 nM.
Assay [43] has as its target Ribosomal protein S6 kinase alpha-1 (Homo sapiens) (UniProt Q15418). The conditions noted are these: Compound concentration 1000.0 nM.
In assay [44] the target is Phosphatidylinositol 3-kinase catalytic subunit type 3 (Homo sapiens) (UniProt Q8NEB9). As to conditions: Compound concentration 1000.0 nM.
Sequence of Phosphatidylinositol 3-kinase catalytic subunit type 3 (Homo sapiens) (Q8NEB9 whole entry): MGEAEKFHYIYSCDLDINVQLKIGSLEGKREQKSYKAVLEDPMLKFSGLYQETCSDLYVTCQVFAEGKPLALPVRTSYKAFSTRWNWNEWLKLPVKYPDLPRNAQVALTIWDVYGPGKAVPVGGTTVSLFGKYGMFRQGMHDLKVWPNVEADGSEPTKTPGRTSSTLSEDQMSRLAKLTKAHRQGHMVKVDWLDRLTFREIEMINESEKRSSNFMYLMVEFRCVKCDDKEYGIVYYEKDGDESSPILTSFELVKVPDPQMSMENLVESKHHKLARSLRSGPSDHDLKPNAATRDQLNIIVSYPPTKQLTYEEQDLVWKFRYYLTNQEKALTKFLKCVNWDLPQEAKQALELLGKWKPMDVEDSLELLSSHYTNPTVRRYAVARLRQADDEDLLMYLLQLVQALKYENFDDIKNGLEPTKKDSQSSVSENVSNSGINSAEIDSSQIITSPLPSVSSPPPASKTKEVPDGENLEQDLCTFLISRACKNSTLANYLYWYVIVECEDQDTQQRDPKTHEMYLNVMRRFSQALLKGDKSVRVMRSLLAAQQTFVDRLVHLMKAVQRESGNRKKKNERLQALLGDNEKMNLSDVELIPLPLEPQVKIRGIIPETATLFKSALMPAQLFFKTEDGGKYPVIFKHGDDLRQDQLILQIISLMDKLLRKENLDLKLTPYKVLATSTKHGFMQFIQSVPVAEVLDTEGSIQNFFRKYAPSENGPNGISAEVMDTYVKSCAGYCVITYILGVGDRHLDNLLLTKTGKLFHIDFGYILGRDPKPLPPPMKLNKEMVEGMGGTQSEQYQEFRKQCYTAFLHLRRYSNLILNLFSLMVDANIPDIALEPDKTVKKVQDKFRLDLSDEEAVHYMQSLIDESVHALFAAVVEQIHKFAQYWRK
In assay [45] the target is Serine/threonine-protein kinase/endoribonuclease IRE1 (Homo sapiens) (UniProt O75460). As to conditions: Compound concentration 1000.0 nM.

Sequence of Eukaryotic translation initiation factor 2-alpha kinase 1 (Homo sapiens) (Q9BQI3 whole entry): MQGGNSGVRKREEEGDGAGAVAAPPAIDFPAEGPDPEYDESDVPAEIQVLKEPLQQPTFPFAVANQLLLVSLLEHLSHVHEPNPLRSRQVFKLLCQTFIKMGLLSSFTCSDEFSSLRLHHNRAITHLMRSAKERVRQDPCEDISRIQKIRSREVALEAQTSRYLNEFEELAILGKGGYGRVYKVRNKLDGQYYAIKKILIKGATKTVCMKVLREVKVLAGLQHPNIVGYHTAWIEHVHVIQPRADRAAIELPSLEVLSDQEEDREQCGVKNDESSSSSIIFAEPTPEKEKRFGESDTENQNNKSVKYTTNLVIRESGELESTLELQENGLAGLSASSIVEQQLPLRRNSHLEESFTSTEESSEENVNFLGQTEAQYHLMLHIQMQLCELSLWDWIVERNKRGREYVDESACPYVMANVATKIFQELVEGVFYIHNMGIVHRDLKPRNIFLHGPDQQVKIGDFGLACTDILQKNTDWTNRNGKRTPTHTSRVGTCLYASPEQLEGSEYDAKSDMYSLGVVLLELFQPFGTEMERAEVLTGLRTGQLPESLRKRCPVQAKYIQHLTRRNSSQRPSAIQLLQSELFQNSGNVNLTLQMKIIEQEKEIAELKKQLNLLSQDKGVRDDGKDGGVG
Sequence of 5-hydroxytryptamine receptor 1B (P28222 whole entry): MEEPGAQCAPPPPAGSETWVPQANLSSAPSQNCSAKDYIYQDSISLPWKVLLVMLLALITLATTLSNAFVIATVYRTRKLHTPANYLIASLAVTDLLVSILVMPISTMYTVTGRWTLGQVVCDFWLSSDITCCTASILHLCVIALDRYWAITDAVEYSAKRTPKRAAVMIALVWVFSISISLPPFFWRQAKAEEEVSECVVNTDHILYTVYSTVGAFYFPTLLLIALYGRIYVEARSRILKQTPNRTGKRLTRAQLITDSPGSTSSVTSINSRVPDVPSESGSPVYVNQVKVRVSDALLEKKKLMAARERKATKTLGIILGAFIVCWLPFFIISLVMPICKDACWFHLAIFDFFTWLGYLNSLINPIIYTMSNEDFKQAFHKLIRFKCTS
Sequence of Dual specificity mitogen-activated protein kinase kinase 3 (Homo sapiens) (P46734 whole entry): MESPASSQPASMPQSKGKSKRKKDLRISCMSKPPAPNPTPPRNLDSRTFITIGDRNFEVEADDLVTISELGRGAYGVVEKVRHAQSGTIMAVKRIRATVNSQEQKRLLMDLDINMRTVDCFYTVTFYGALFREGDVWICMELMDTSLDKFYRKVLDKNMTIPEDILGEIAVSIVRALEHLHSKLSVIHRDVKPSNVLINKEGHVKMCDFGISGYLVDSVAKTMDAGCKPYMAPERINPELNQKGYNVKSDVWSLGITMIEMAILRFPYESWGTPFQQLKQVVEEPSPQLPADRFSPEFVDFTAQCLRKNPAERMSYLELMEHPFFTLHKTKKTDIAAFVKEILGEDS

Regarding `CC(C)(C)OC(=O)N1CCCC1CNC1CCC(c2cc(F)ccc2F)(S(=O)(=O)c2ccc(Cl)cc2)CC1` (stereo not given) [GSI-NC], the results for the inhibition constant Ki in assay [1] and in assay [2] were 0.946 µM and 0.653 µM, respectively.
For the compound `O=S(=O)(NC1CCC(c2cc(F)ccc2F)(S(=O)(=O)c2ccc(Cl)cc2)CC1)C(F)(F)F` (stereo not given) [MRK-560], the residual activity was 93% in assay [3]; 98% in assay [4]; 100% in assay [5]; 100% in assay [6]; 81% in [7]; 100% in assay [8]. Besides, the residual activity was 100% in [9]; 90% in [10]; 97% in [11]; 91% in assay [12]; 82% in assay [13]; 82% in [14]. Also, the residual activity in [15], in assay [16], in assay [17], in assay [18], in assay [19] and in assay [20] was 100% in each case. Moreover, the residual activity in assay [21] is 71%; in [22], 100%; in [23], 98%; in assay [24], 100%; in [25], 87%; in assay [26], 100%. Further, the residual activity in assay [27] is 100%; in assay [28], 92%; in [29] it was 87%; in assay [30] it was 84%; in assay [31], 77%; in [32] it was 100%. Also, the residual activity in assay [33] was 100%; in [34] it was 100%; in assay [35], 100%; in [36], 100%; in assay [37], 92%; in assay [38], 100%. The residual activity in [39] is 99%; in assay [40], 83%; in assay [41] it was 100%; in [42], 100%; in assay [43], 100%; in assay [44] it was 100%. Besides, the residual activity in assay [45] is 100%.
